Test system: tumor spheroids of MDA-MB-231 cells and murine bone marrow derived macrophages
Test: 3D co-culture spheroid viability, alamar blue assay
Assay type: cell-based, human; murine
Settings: doxorubicin 1.25 μM alone

## COc1cccc2c1C(=O)c1c(O)c3c(c(O)c1C2=O)C[C@@](O)(C(=O)CO)C[C@@H]3O[C@H]1C[C@H](N)[C@H](O)[C@H](C)O1 [doxorubicin]
  3D spheroid viability versus vehicle control: ~100%

— publication PMC9541094 (Chemistry (Weinheim an der Bergstrasse, Germany), 2022)
